Measured values published in patent publication US7045343B2, “Sterilization indicator test packs” (3M Innovative Properties Company, priority 1998, dated 2006).

Columns and labels:
[1] = test system: enzyme associated with Bacillus stearothermophilus spores; assay: Rapid enzyme fluorescence readout of indicators after hydrogen peroxide plasma sterilization; assay type: biochemical; conditions: for FLUORESCENCE - PERCENT POSITIVE 1 HR / FLUORESCENCE - PERCENT POSITIVE 2 HR / FLUORESCENCE - PERCENT POSITIVE 3 HR / FLUORESCENCE - PERCENT POSITIVE 4 HR / FLUORESCENCE - PERCENT POSITIVE 5 HR: 1–22 min diffusion
Experimental: (§1) Sterilization indicators for Examples 6–9 were prepared as described above with the exception that closure member 22 of the sterilization indicator was constructed of TYVEK™ high-density polyethylene fiber material, commercially available from E.I. du Pont de Nemours and Co., Wilmington, Del.
(§2) Sterilization indicators were made as described above with spores that had been coated with each of the chemicals and concentrations listed in Table 6. The indicators were placed in instrument trays and exposed to a hydrogen peroxide plasma sterilization procedure at 45–55° C. in a STERRAD™ 100SI GMP Sterilizer, obtained from Advanced Sterilization Products Co., Irvine, Calif. During the sterilization procedure a vacuum was drawn in the sterilization chamber for 5–6 minutes until the pressure was reduced to 300 mTorr. A 1.8 ml aliquot of an aqueous solution of 58–60% hydrogen peroxide was then injected into the sterilization chamber over a period of about 6 minutes, yielding an empty chamber concentration of […] hydrogen peroxide, and hydrogen peroxide vapor was allowed to diffuse throughout the chamber for 1–22 minutes at 6–10 Torr. A vacuum was then drawn, reducing the pressure to 500 mTorr and removing all detectable hydrogen peroxide vapor from the chamber.
(§3) After exposure to the sterilization procedure, the indicators were removed from the sterilizer and the inner containers containing the enzyme substrate and nutrient medium were crushed. The indicators were then incubated at 60° C. and examined for fluorescence every hour for 5 hours using a 3M™ ATTEST™ Model 190 Rapid Autoreader, commercially available from 3M Company, St. Paul, Minn. Additionally, spore growth, as indicated by a color change from purple to yellow, was determined visually after 168 hours of incubation.
(§4) The number of growth positive indicators detected after 168 hours of incubation is recorded in Table 6.
as §2, with “7.” for “6.”
as §2, with “8.” for “6.”, “chamber. […]” for “chamber.”

[2] = test system: Bacillus stearothermophilus spores; assay: Spore outgrowth (color change) of indicators after hydrogen peroxide plasma sterilization; assay type: cell-based; conditions: 1–22 min diffusion
Experimental: as §1, §2, §3, §4
as §2, with “7.” for “6.”
as §2, with “8.” for “6.”, “chamber. […]” for “chamber.”

[3] = test system: enzyme associated with Bacillus stearothermophilus spores; assay: Rapid enzyme fluorescence readout of dual rapid readout indicators after prevacuum steam sterilization; assay type: biochemical; conditions: 4-pulse prevacuum steam 121° C.; for FLUORESCENCE - PERCENT POSITIVE 1 HR / FLUORESCENCE - PERCENT POSITIVE 2 HR / FLUORESCENCE - PERCENT POSITIVE 3 HR / FLUORESCENCE - PERCENT POSITIVE 4 HR: Example 5, 7–13 min
Experimental: (§5) The indicators prepared for the Examples were dual rapid readout indicators that provided both a rapid, enzyme-based efficacy test and a confirmatory spore outgrowth test. Spores coated on the carrier strip 16 served as the source of active enzyme whose activity was measured by the rapid enzyme test. These same spores were then incubated in the spore outgrowth portion of the test.
(§6) Bacillus stearothermophilus, commercially available as ATCC 7953 from American Type Culture Collection, Rockville, Md., was grown overnight (16 hours) at 58° C. in tryptic soy broth. This culture was used to inoculate the surface of agar plates consisting of 8 g/l nutrient broth, 4 g/l yeast extract, 0.1 g/l manganese chloride and 20 g/l agar at pH 7.2. Plates were incubated at 58° C. for 72 hours. Spores were scraped from the plates and suspended in sterile distilled water. The spores were separated from the vegetative debris by centrifuging the suspension at 7000 rpm and 4° C. for 20 minutes. The supernatant was poured off and the spores were resuspended in sterile distilled water. The cleaning procedure was repeated several times. After the final wash, the spores were suspended in sterile distilled water, at a concentration of approximately 1×10^8 spores per milliliter.
(§7) The spores were then treated with the chemicals identified in Tables 1–5. All chemicals tested were obtained from commercial sources. The spores were centrifuged at 6000 rpm for 10 minutes. The supernatant and coating chemical mixtures were heated at 60–80° C. for several minutes and vortexed to get the material into solution. The spores were then mixed into the sterilant-resistant chemical solution. The sterilant-resistant chemical solution was applied to 5×25 mm, 591 A paper strips (Schleicher & Schuell, Inc., Keene, N.H.) by pipetting 10–15 microliters to each strip for a final population of about 1×10^6 spores per strip. The strips were dried 16 hours at 37° C.
(§8) The treated spore strips were placed on the bottom of the outer container 12 of the indicator 10 and a barrier was inserted between the spore strip 16 and the inner container 18, which contained enzyme substrate. A […] ( 11/16 inch) disc of polypropylene blown microfiber material, with a weight of 200 g/m^2, commercially available as “THINSULATE™ 200-B brand Thermal Insulation” from 3M Company, St. Paul, Minn., was used as the barrier. The inner container 18 contained 0.67 ml nutrient medium, consisting of 17 g of a bacteriological peptone and a 0.17 g/l of L-alanine, as well as 0.1 g 4-methylumbelliferyl-alpha-D-glucoside, commercially available from Sigma Chemical Company, St. Louis, Mo., dissolved in 200 microliters of N,N-dimethylformamide, and 0.03 g bromocresol purple pH indicator dye, per liter of water. The pH of the enzyme substrate and nutrient medium solution was adjusted to 7.6 with 0.1N sodium hydroxide.
(§9) Sterilization indicators were made as described above with each of the chemicals and concentrations described in Table 1. Control indicators were made using untreated spores. The indicators were placed in metal instrument trays and exposed at 121° C. in a Getinge Steam Sterilizer (Getinge International, Inc., 1100 Towbin Ave., Lakewood, N.J.) using a 4-pulse prevacuum cycle at 121° C. with a vacuum level of 0.075–0.085 bar and a steam pulse to 1.00 bar for each pulse. Indicators were exposed in the sterilizer for between 7 and 13 minutes. This cycle is depicted in the time-pressure diagram in FIG. 5. After exposure the inner containers containing the enzyme substrate and nutrient medium were crushed and the indicators were incubated at 60° C. The indicators were examined for fluorescence using a 3M™ ATTEST™ Model 190 Rapid Autoreader, commercially available from 3M Company, St. Paul, Minn. Additionally, spore growth, as indicated by a color change from purple to yellow, was determined visually after 168 hours of incubation at 60° C. […]

[4] = test system: Bacillus stearothermophilus spores; assay: Spore outgrowth (color change) of indicators after prevacuum steam sterilization; assay type: cell-based; conditions: Example 5, 4-pulse prevacuum steam 121° C., 7–13 min
Experimental: as §5, §6, §7, §8, §9

Hexaglyn Di-Stearate was tested, and the “accuracy of sterilization indicators compared to indicators made with untreated spores” value ([1]; 1–3 hours after exposure) was “improved”, the “FLUORESCENCE - PERCENT POSITIVE 1 HR” value ([1]; Example 8, 25 mg/ml coating) was 100% and the “FLUORESCENCE - PERCENT POSITIVE 2 HR” value ([1]; Example 8, 25 mg/ml coating) was 100%. For the same substance, the “FLUORESCENCE - PERCENT POSITIVE 3 HR” value ([1]; Example 8, 25 mg/ml coating) was 100%, the “FLUORESCENCE - PERCENT POSITIVE 4 HR” value ([1]; Example 8, 25 mg/ml coating) was 100% and the “FLUORESCENCE - PERCENT POSITIVE 5 HR” value ([1]; Example 8, 25 mg/ml coating) was 100%. The “FLUORESCENCE - PERCENT POSITIVE 1 HR” value ([1]; Example 8, 50 mg/ml coating) was 100%, the “FLUORESCENCE - PERCENT POSITIVE 2 HR” value ([1]; Example 8, 50 mg/ml coating) was 100% and the “FLUORESCENCE - PERCENT POSITIVE 3 HR” value ([1]; Example 8, 50 mg/ml coating) was 100%. The “FLUORESCENCE - PERCENT POSITIVE 4 HR” value ([1]; Example 8, 50 mg/ml coating) was 100%, the “FLUORESCENCE - PERCENT POSITIVE 5 HR” value ([1]; Example 8, 50 mg/ml coating) was 100% and the “FLUORESCENCE - PERCENT POSITIVE 1 HR” value ([1]; Example 8, 100 mg/ml coating) was 100%. For the same substance, the “FLUORESCENCE - PERCENT POSITIVE 2 HR” value ([1]; Example 8, 100 mg/ml coating) was 100%, the “FLUORESCENCE - PERCENT POSITIVE 3 HR” value ([1]; Example 8, 100 mg/ml coating) was 100% and the “FLUORESCENCE - PERCENT POSITIVE 4 HR” value ([1]; Example 8, 100 mg/ml coating) was 100%. The “FLUORESCENCE - PERCENT POSITIVE 5 HR” value ([1]; Example 8, 100 mg/ml coating) was 100%, the “NO. GROWTH POSITIVE 168 HR” value ([2]; Example 8, 25 mg/ml coating) was 16 and the “NO. GROWTH POSITIVE 168 HR” value ([2]; Example 8, 50 mg/ml coating) was 16. For the same substance, the “NO. GROWTH POSITIVE 168 HR” value ([2]; Example 8, 100 mg/ml coating) was 16.
Alkyl Polyglucoside was tested, and the “FLUORESCENCE - PERCENT POSITIVE 1 HR” value ([1]; Example 8, 20 mg/ml coating) was 0%, the “FLUORESCENCE - PERCENT POSITIVE 2 HR” value ([1]; Example 8, 20 mg/ml coating) was 0% and the “FLUORESCENCE - PERCENT POSITIVE 3 HR” value ([1]; Example 8, 20 mg/ml coating) was 0%. For the same substance, the “FLUORESCENCE - PERCENT POSITIVE 4 HR” value ([1]; Example 8, 20 mg/ml coating) was 0%, the “FLUORESCENCE - PERCENT POSITIVE 5 HR” value ([1]; Example 8, 20 mg/ml coating) was 0% and the “FLUORESCENCE - PERCENT POSITIVE 1 HR” value ([1]; Example 8, 40 mg/ml coating) was 0%. For the same substance, the “FLUORESCENCE - PERCENT POSITIVE 2 HR” value ([1]; Example 8, 40 mg/ml coating) was 0%, the “FLUORESCENCE - PERCENT POSITIVE 3 HR” value ([1]; Example 8, 40 mg/ml coating) was 0% and the “FLUORESCENCE - PERCENT POSITIVE 4 HR” value ([1]; Example 8, 40 mg/ml coating) was 0%. For the same substance, the “FLUORESCENCE - PERCENT POSITIVE 5 HR” value ([1]; Example 8, 40 mg/ml coating) was 0%, the “NO. GROWTH POSITIVE 168 HR” value ([2]; Example 8, 20 mg/ml coating) was 5 and the “NO. GROWTH POSITIVE 168 HR” value ([2]; Example 8, 40 mg/ml coating) was 1.
In the case of Decaglyceryl Diisostearate, the “accuracy of sterilization indicators compared to indicators made with untreated spores” value [3] was “improved”, the “FLUORESCENCE - PERCENT POSITIVE 1 HR” value ([3]; 50 mg/ml coating) was 30% and the “FLUORESCENCE - PERCENT POSITIVE 2 HR” value ([3]; 50 mg/ml coating) was 80.0%. The “FLUORESCENCE - PERCENT POSITIVE 3 HR” value ([3]; 50 mg/ml coating) was 100%, the “FLUORESCENCE - PERCENT POSITIVE 4 HR” value ([3]; 50 mg/ml coating) was 100% and the “FLUORESCENCE - PERCENT POSITIVE 1 HR” value ([3]; 100 mg/ml coating) was 28.6%. The “FLUORESCENCE - PERCENT POSITIVE 2 HR” value ([3]; 100 mg/ml coating) was 100.0%, the “FLUORESCENCE - PERCENT POSITIVE 3 HR” value ([3]; 100 mg/ml coating) was 100% and the “FLUORESCENCE - PERCENT POSITIVE 4 HR” value ([3]; 100 mg/ml coating) was 100%. For the same substance, the “NO. GROWTH POSITIVE 168 HR” value ([4]; 50 mg/ml coating) was 10 and the “NO. GROWTH POSITIVE 168 HR” value ([4]; 100 mg/ml coating) was 14.
For POE(60) Sorbitol Tetraoleate, the “FLUORESCENCE - PERCENT POSITIVE 1 HR” value ([3]; 50 mg/ml coating) was 0%, the “FLUORESCENCE - PERCENT POSITIVE 2 HR” value ([3]; 50 mg/ml coating) was 0% and the “FLUORESCENCE - PERCENT POSITIVE 3 HR” value ([3]; 50 mg/ml coating) was 0%. For the same substance, the “FLUORESCENCE - PERCENT POSITIVE 4 HR” value ([3]; 50 mg/ml coating) was 0%, the “FLUORESCENCE - PERCENT POSITIVE 1 HR” value ([3]; 100 mg/ml coating) was 0% and the “FLUORESCENCE - PERCENT POSITIVE 2 HR” value ([3]; 100 mg/ml coating) was 0%. The “FLUORESCENCE - PERCENT POSITIVE 3 HR” value ([3]; 100 mg/ml coating) was 0%, the “FLUORESCENCE - PERCENT POSITIVE 4 HR” value ([3]; 100 mg/ml coating) was 0% and the “NO. GROWTH POSITIVE 168 HR” value ([4]; 50 mg/ml coating) was 2. The “NO. GROWTH POSITIVE 168 HR” value ([4]; 100 mg/ml coating) was 2.
